Results as given in patent publication US20190022225A1, “PROTOCOL FOR INCREASING LIFE EXPECTANCY IN A TEST SUBJECT” (Mayo Foundation for Medical Education and Research, priority 2015, published 2019).
“Also recorded” adds a separate entry of the source. Read-outs that look alike come from different tables or passages of the source.

What was measured:
[1] = system: senescent (irradiated) IMR90 cells; experiment: CellTiter-Glo cell viability assay, senescent IMR90; format: cell-based, human
Experimental: (§1) To determine whether ABT-263 is selectively toxic to senescent cells compared to non-senescent cells, a cell viability assay was used to assess cell survival following treatment with ABT-263. IMR90 cells (human primary lung fibroblasts (IMR90) (IMR-90 (ATCC® CCL-186™, Mannassas, Va.) were seeded in six well plates, and cells were induced to senescence with 10 Gy of ionizing radiation (IR) (Day 0). The media was refreshed every 3 days. The senescent phenotype is allowed to develop for 7 days at which point a cell count was made to determine the baseline number of cells followed by seeding into 96-well plates. On day 8, the senescent cells (irradiated) and the non-senescent cells (the non-radiated cells), were exposed to serial dilutions of ABT-263 for a period of 3 days. ABT-263 concentrations ranged from 0.5 nM to 3 μM. Each condition was seeded in triplicate.
(§2) After three days of treatment (Day 11), cells were assayed for cell survival using the commercially available CellTiter-Glo® (CTG) Luminescent Cell Viability Assay (Promega Corporation, Madison, Wis.). The assay determines the number of viable cells in culture based on the quantitation of ATP present which is an indicator of metabolically active cells.
(§3) The experiments performed for assessing the effect of these other Bcl-2 inhibitors were performed essentially as described in Example 7. Cells were exposed to ABT-199 at serial dilution concentrations ranging from 15 nM to 100 μM (FIGS. 26 and 27). Cells were exposed to Obatoclax at concentrations ranging from 1.4 nM to 9 μM (FIG. 28).
(§4) The effect of ABT-263 in combination with the Akt inhibitor MK-2206 was tested for selective toxicity of senescent cells compared to non-senescent cells in IMR90 cells. The methods of Example 7 were repeated except that cell cultures were exposed to 10 nM MK-2206 (Selleckem, Cat# S1078) in addition to serial dilutions of ABT-263.

[2] = system: non-senescent IMR90 cells; experiment: CellTiter-Glo cell viability assay, non-senescent IMR90; format: cell-based; conditions: Homo sapiens, IMR-90, 72 h, IMR90, 3 days
Experimental: as §1, §2, §3, §4

Senescent cells (SnC) = experiment: Cell survival EC50 of MDM2 inhibitors, senescent cells; conditions: for EC50: read-out: Cell survival data EC50 SnC
[3] = system: quiescent high density non senescent cells (HD NsC); experiment: Cell survival EC50 of MDM2 inhibitors, quiescent high density non senescent cells; conditions: read-out: Cell survival data EC50 HD NsC
p16-3MR mice = experiment: Senescence induced by chemotherapeutic drugs in p16-3MR mice (luminescence, skin mRNA); format: in vivo, mouse; conditions: for level of senescent cells (luminescence): p<0.05
Experimental: Paclitaxel induces senescence and SASP in p16-3MR transgenic mice. Groups of mice (n=4) were treated three times every two days with 20 mg/kg paclitaxel or vehicle. […] The level of mRNA in skin was determined for each of the target genes: p16, 3MR transgene, and IL-6.
To examine senescence induced by different chemotherapeutic drugs, groups of p16-3MR animals (n=4) were treated with thalidomide (100 mg/kg; 7 daily injections); romidepsin (1 mg/kg; 3 injections); pomalidomide (5 mg/kg; 7 daily injections); lenalidomide (50 mg/kg; 7 daily injections); 5-azacytidine (5 mg/kg; 3 injections) and compared with doxorubicin (10 mg/kg, 2-4 injections over 7 days).

For `CC1(C)CCC(CN2CCN(c3ccc(C(=O)NS(=O)(=O)c4ccc(NCC5CCOCC5)c([N+](=O)[O-])c4)c(Oc4cnc5[nH]ccc5c4)c3)CC2)=C(c2ccc(Cl)cc2)C1` [ABT-199, 4-[4-[[2-(4-Chlorophenyl)-4,4-dimethylcyclohex-1-en-1-yl]methyl]piperazin-1-yl]-N-[[3-nitro-4-[[(tetrahydro-2H-pyran-4-yl)methyl]amino]phenyl]sulfonyl]-2-[(1H-pyrrolo[2,3-b]pyridin-5-yl)oxy]benzamide], the IC50 ([1]; Homo sapiens, IMR-90, 72 h, IMR90, 3 days, read-out: IC50 in senescent cells) was 6.9 to 12.4 µM, the “selective targeting of senescent cells over non-senescent cells” value ([1]; IMR90) was “inability” and the IC50 ([2]; CellTiter-Glo, read-out: IC50 on non-senescent cells) was 6 to 15.8 µM.
For `CC(C)[C@@H](CS(=O)(=O)C(C)C)N1C(=O)[C@@](C)(CC(=O)O)C[C@H](c2cccc(Cl)c2)[C@H]1c1ccc(Cl)cc1` [AMG-232, 2-((3R,5R,6S)-5-(3-chlorophenyl)-6-(4-chlorophenyl)-1-((S)-1-(isopropylsulfonyl)-3-methylbutan-2-yl)-3-methyl-2-oxopiperidin-3-yl)acetic acid], the “EC50 dose ratio HD NsC/SnC” value (Senescent cells (SnC)) was 1.2, the EC50 (Senescent cells (SnC)) was 3.4 µM and the EC50 [3] was 4.1 µM.
In the case of `O=C(/C=C/c1ccc(I)cc1)c1ccc(B(O)O)cc1` [Boronate, trans-4-Iodo, 4′-boranyl-chalcone], the “EC50 dose ratio HD NsC/SnC” value (Senescent cells (SnC)) is reported as 14.1, the “selectivity for senescent cells over quiescent cells” value (“selectivity for senescent cells” for short) (Senescent cells (SnC)) is reported as “particularly high selectivity” and the “selectivity for senescent cells” value (Senescent cells (SnC); listed as boronate) is reported as “high specificity”. It also gave an EC50 (Senescent cells (SnC)) of 10.8 µM and an EC50 [3] of 153 µM.
`O=C1c2c(c(-c3ccccc3)nn2Cc2ccccc2)C(c2ccc(Br)cc2)N1CCCn1ccnc1` (centres unmarked) [CAY10681, 4-(4-bromophenyl)-4,5-dihydro-5-[3-(1H-imidazol-1-yl)propyl]-3-phenyl-1-(phenylmethyl)-pyrrolo[3,4-c]pyrazol-6(1H)-one] was tested, and the “EC50 dose ratio HD NsC/SnC” value (Senescent cells (SnC)) was 1.6, the EC50 (Senescent cells (SnC)) was 11 µM and the EC50 [3] was 17.6 µM.
In the case of `O=C1c2c(c(-c3ccccc3)nn2Cc2ccc(F)cc2)C(c2ccc(Br)cc2)N1CCCn1ccnc1` (centres unmarked) [CAY10682, 4-(4-bromophenyl)-1-[(4-fluorophenyl)methyl]-4,5-dihydro-5-[3-(1H-imidazol-1-yl)propyl]-3-phenyl-pyrrolo[3,4-c]pyrazol-6(1H)-one], the “EC50 dose ratio HD NsC/SnC” value (Senescent cells (SnC)) is reported as 1.3, the EC50 (Senescent cells (SnC)) is reported as 11.2 µM and the EC50 [3] is reported as 14.3 µM.
`c1ccc2c(CCNc3ccc(Nc4ccncc4)cc3)c[nH]c2c1` [JNJ 26854165, N1-(2-(1H-indol-3-yl)ethyl)-N4-(pyridin-4-yl)benzene-1,4-diamine] was tested, and the “EC50 dose ratio HD NsC/SnC” value (Senescent cells (SnC)) was 6.5, the “selectivity for senescent cells” value (Senescent cells (SnC)) was “high specificity; also recorded: particularly high selectivity” and the EC50 (Senescent cells (SnC)) was 1 µM. It also gave an EC50 [3] of 6.6 µM.
`CCCCn1c(=O)[nH]c(O)c(C2NCCc3c2[nH]c2ccccc32)c1=O` (centres unmarked) [MEL23, 3-Butyl-6-hydroxy-5-(2,3,4,9-tetrahydro-1H-pyrido[3,4-b]indol-1-yl)pyrimidine-2,4(1H,3H)-dione] was tested, and the “EC50 dose ratio HD NsC/SnC” value (Senescent cells (SnC)) was 5.2, the “selectivity for senescent cells” value (Senescent cells (SnC); listed as Me123) was “high specificity; also recorded: particularly high selectivity” and the EC50 (Senescent cells (SnC)) was 4 µM. It also gave an EC50 [3] of 20.9 µM.
In the case of `Cn1c(=O)c([N+](=O)[O-])c(Cl)c2ccccc21` [ML214], the “level of killing of senescent cells versus non-senescent cells” value ([1]; irradiated and non-senescent IMR90) is reported as “comparable to the level of killing of non-senescent cells”.
With `COC1=CC(c2cc3ccccc3[nH]2)=N/C1=C\c1[nH]c(C)cc1C` [Obatoclax] the IC50 ([2]; read-out: IC50 in non-senescent cells) was 0.075 µM.
In the case of `COc1cc(C(=O)O)ccc1NC(=O)[C@@H]1N[C@@H](CC(C)(C)C)[C@](C#N)(c2ccc(Cl)cc2F)[C@H]1c1cccc(Cl)c1F` [RG7388, 4-[[(2R,3S,4R,5S)-3-(3-chloro-2-fluorophenyl)-4-(4-chloro-2-fluorophenyl)-4-cyano-5-(2,2-dimethylpropyl)pyrrolidine-2-carbonyl]amino]-3-methoxybenzoic acid], the “EC50 dose ratio HD NsC/SnC” value (Senescent cells (SnC)) is reported as 1.0, the EC50 (Senescent cells (SnC)) is reported as 32.8 µM and the EC50 [3] is reported as 31.5 µM.
`OCc1ccc(-c2ccc(-c3ccc(CO)s3)o2)s1` [RITA, 5,5′-(2,5-Furandiyl)bis-2-thiophenemethanol] was tested, and the “EC50 dose ratio HD NsC/SnC” value (Senescent cells (SnC)) was 0.9, the EC50 (Senescent cells (SnC)) was 254 µM and the EC50 [3] was 223 µM.
In the case of `COc1cccc2c1C(=O)c1c(O)c3c(c(O)c1C2=O)C[C@@](O)(C(=O)CO)C[C@@H]3O[C@H]1C[C@H](N)[C@H](O)[C@H](C)O1` [doxorubicin], the “level of senescent cells (luminescence)” value (p16-3MR mice) is reported as “significant levels of senescent cells”.
`Nc1cccc2c1CN(C1CCC(=O)NC1=O)C2=O` (centres unmarked) [lenalidomide] was tested, and the “level of senescent cells (luminescence)” value (p16-3MR mice) was “significant levels of senescent cells”.
`Nc1cccc2c1C(=O)N(C1CCC(=O)NC1=O)C2=O` (centres unmarked) [omalidomide] was tested, and the “level of senescent cells (luminescence)” value (p16-3MR mice) was “significant levels of senescent cells”.
`CC(=O)O[C@H]1C(=O)[C@@]2(C)[C@H]([C@H](OC(=O)c3ccccc3)[C@]3(O)C[C@H](OC(=O)[C@H](O)[C@@H](NC(=O)c4ccccc4)c4ccccc4)C(C)=C1C3(C)C)[C@]1(OC(C)=O)CO[C@@H]1C[C@@H]2O` [paclitaxel] was tested, and the “senescence shown by luminescence” value (p16-3MR mice; 20 mg/kg three times every two days) was “Senescence was observed” and the “levels of mRNA for p16, 3MR and IL-6 in skin” value (p16-3MR mice; 20 mg/kg three times every two days, versus vehicle) was “increased”.
